In brackets after ≈: the same amount, converted by molar mass.

The conditions of this data set: buffer; pH 7.4; 200.0 µM.
On to `OCCCc1nc2ccccc2n1Cc1ccccc1`, for which the solubility (kinetic) was more than 40 µg/mL.
For `CC(=O)Nc1ccccc1C(=O)C(=O)Nc1cccc(Br)c1`, the kinetic solubility is 29.1 µg/mL (≈ 80.6 µM).
Then `CC(Cc1cccs1)NCc1ccc(Cl)cc1` (configuration not stated), with 22.6 µg/mL (≈ 85 µM).
In turn, `COc1cc(C=NNC(=O)c2ccccc2-n2cccc2)ccc1O` registered a solubility (kinetic) of more than 50.3 µg/mL.
The figure for `Cc1sc2ncnc(N3CCN(S(=O)(=O)c4ccc(C(C)(C)C)cc4)CC3)c2c1C` is 2.8 µg/mL (≈ 6.3 µM).
In turn, `COc1ccc(Nc2nc3nonc3nc2N2CCCCC2)cc1` yielded a kinetic solubility of 5.3 µg/mL (≈ 16.2 µM).
`COc1ccc(N2CCN(S(=O)(=O)c3cn(C)c(=O)n(C)c3=O)CC2)cc1`: the solubility (kinetic) was determined as 17.9 µg/mL (≈ 45.4 µM).
As for `OCC1(CO)COC(c2ccccc2)=N1`, the solubility (kinetic) is more than 31.1 µg/mL.
In turn, `CC(C)NC(=O)COc1cccc2ccccc12` yielded a kinetic solubility of 31.8 µg/mL (≈ 131 µM).
The figure for `O=C(O)c1ccc(S(=O)(=O)NCc2ccc3c(c2)OCO3)cc1` is more than 50.3 µg/mL.
The figure for `CC(C)c1ccc(NC2CCCN(C(=O)c3ccco3)C2)cc1` (configuration not stated) is more than 46.9 µg/mL; for `O=c1cc(C(F)(F)F)[nH]c2c(OC(F)(F)F)cccc12` it is more than 44.6 µg/mL; for `C=CCN(CC=C)S(=O)(=O)c1ccc(NC(=S)NC(=O)C2CC2)cc1` it is 7.8 µg/mL (≈ 20.6 µM).
The figure for `Fc1ccccc1CN1CCCC(NC2CCC2)C1` (configuration not stated) is 36.9 µg/mL (≈ 141 µM); for `COc1ccc(/C=C2\N=C(c3ccc(C)cc3)OC2=O)cc1` it is 3.5 µg/mL (≈ 11.9 µM).
`Cc1cc2c(cc1C)C(c1ccccc1F)CC(=O)N2` (configuration not stated) displayed a solubility (kinetic) of less than 0.6 µg/mL.
In turn, `COc1cccc(NC(=O)CSc2cccc[n+]2[O-])c1` had a solubility (kinetic) of more than 43.6 µg/mL.
Take `CCCn1c(SCC(=O)N2CCc3ccccc3C2)nc(O)cc1=O`: the solubility (kinetic) is more than 53.9 µg/mL.
Then `Cc1cccc(NC(=O)C(=O)NCCCN2CCOCC2)c1`, with 41.9 µg/mL (≈ 137 µM); and `COc1ccccc1OCCn1c(SCC(=O)O)nc2ccccc21`, with more than 53.8 µg/mL.
The figure for `Cc1cc(C)cc(NC(=O)CNC(c2ccccc2)c2ccccc2)c1` is 1.1 µg/mL (≈ 3.19 µM); for `CCOC(=O)CSc1nc(C)cc(C)c1C(N)=O` it is 35.6 µg/mL (≈ 133 µM); for `COc1ccc(N(CC(=O)NC2CCS(=O)(=O)C2)S(=O)(=O)c2cc(C)ccc2C)cc1` (configuration not stated) it is 66.3 µg/mL (≈ 142 µM).
In turn, `CCn1c(=NC(=O)C2COc3ccccc3O2)sc2c(C)ccc(OC)c21` (configuration not stated) came in with a kinetic solubility of less than 0.4 µg/mL.
The figure for `CC(C)(C)c1ccc(NC(=O)c2cc[n+]([O-])cc2)cc1` is 36.1 µg/mL (≈ 134 µM); for `O=C(Nc1ccc2c(c1)C(=O)OC2)c1ccc(Cl)cc1` it is less than 0.6 µg/mL; for `CC1(C)CC2(C)OC(=N)C1(C#N)C2(C#N)C#N` (configuration not stated) it is 34 µg/mL (≈ 149 µM).
Then `O=C(NC1CC1)c1cc2cc3ccccc3nc2s1`, with 0.9 µg/mL (≈ 3.35 µM); and `C=CCCCCCCCCC(=O)Nc1ncccn1`, with 6.8 µg/mL (≈ 26 µM).
Compound `CCCN1CCC(NC(=S)Nc2ccc([N+](=O)[O-])cc2)CC1` returned a solubility (kinetic) of more than 48.4 µg/mL.
For `Cc1ccc(N(CN2CCCC2=O)C(=O)c2ccccc2)cc1`, the kinetic solubility is more than 46.3 µg/mL.
The figure for `O=C(OCCN1CCN(C2=NS(=O)(=O)c3ccccc32)CC1)c1ccccc1F` is 57.3 µg/mL (≈ 137 µM); for `Cn1cc(CCC(=O)NC2CC2)c2ccccc21` it is more than 36.3 µg/mL; for `O=C(O)c1ccc2ncsc2c1` it is more than 26.9 µg/mL.
In turn, `CS(=O)(=O)O.c1cnc(N2CCN(Cc3ccc4c(c3)OCO4)CC2)nc1` gave a solubility (kinetic) of more than 59.2 µg/mL.
Compound `COc1ccccc1Nc1nc2cc(C)ccc2cc1C#N` showed a solubility (kinetic) of less than 0.2 µg/mL.
The figure for `CCC(=O)N1c2ccc(S(=O)(=O)N3CCCC3)cc2CC1C` (configuration not stated) is 33.5 µg/mL (≈ 104 µM); for `COc1ccc(Cl)cc1-c1csc(N)n1` it is 34.1 µg/mL (≈ 142 µM).
The figure for `O=C(/C=C/c1ccc(Cl)cc1)Nc1cc(S(=O)(=O)N2CCOCC2)ccc1N1CCOCC1` is 5.9 µg/mL (≈ 12 µM); for `COc1ccc(NC(=O)N2CCc3cc(OC)c(OC)cc3C2)cc1` it is 9.1 µg/mL (≈ 26.6 µM).
The figure for `COc1ccc(C(=O)NCCc2cnc[nH]2)cc1OC` is more than 41.3 µg/mL; for `Cl.Fc1ccccc1CNC1CN2CCC1CC2` (configuration not stated) it is more than 46.1 µg/mL; for `Cc1ccccc1NC(=S)N/N=C/c1ccc(O)cc1O` it is more than 45.2 µg/mL.
`COc1c(C)cccc1C(=O)NCc1ccc2c(c1)OCO2` gave a solubility (kinetic) of more than 44.9 µg/mL.
Then `CC(NC(=O)c1cc2ccccc2oc1=O)c1ccc(O)cc1` (configuration not stated), with 27.3 µg/mL (≈ 88.3 µM); and `Cc1cc(C(=O)Nc2ccc3c(c2)CCC3)ccc1[N+](=O)[O-]`, with less than 0.3 µg/mL.
In turn, `Cc1ccc(/C=C/C(=O)OCC(=O)NCc2cccs2)o1` came in with a kinetic solubility of 21.8 µg/mL (≈ 71.4 µM).
`CCOC(=O)c1c(C)nc(C(Cl)(Cl)Cl)nc1N` registered a kinetic solubility of 21.7 µg/mL (≈ 72.7 µM). The solubility kinetic values of the last two compounds are within 1.5-fold of each other.
`Cc1cc(C(=O)N2CCC(C(=O)O)CC2)c(C(F)(F)F)o1` displayed a kinetic solubility of more than 45.8 µg/mL.
`Cn1cc(S(=O)(=O)NC2CCCC2)c(=O)n(C)c1=O` registered a kinetic solubility of more than 43.1 µg/mL.
Regarding `O=C(CSc1nccc(=O)[nH]1)Nc1cccc2ccccc12`, the kinetic solubility is more than 46.7 µg/mL.
Then `CC(C)(C)C(=O)OC/C(N)=N/OC(=O)c1ccccc1`, with more than 41.7 µg/mL.

As usually defined, the solubility (kinetic) is the concentration staying in solution when a stock, usually in DMSO, is diluted into the medium.

The record behind these values is PubChem BioAssay AID1996.
